# Measurements as given in article PMC9101642 (Molecules, 2022).
# Like-named read-outs stand apart in the source and are kept apart here. Marks after values point to notes of the source that are not given here.
# Key:
# [1] = Serum biochemical markers after treatment of MNU-induced rats; format: in vivo, Wistar rats; set-up: TBC: unit not given here; details: for ALP (A/L) / ALT (A/L) / AST (U/L) / γ-GT (U/L): serum; for TBC: total bilirubin content
# Experimental: (§1) Rats were housed at 3 per cage and
# (§2) The breast cancer was induced after the MNU (Sigma Aldrich CAS No. 684-93-5) administration. An aqueous solution at a concentration of 10 mg/ml was made by wetting the NMU powder with 3% acetic acid and then dissolving it in 0.9% NaCl solution; a fresh solution was prepared for each injection. Rats were given intraperitoneal (i.p.) 50 mg/kg of MNU on the 50th day of age. Animals were divided into different groups with six animals in each group. Group I (intact control) received 0.9% NaCl solution.
# (§3) Groups II-IV and V-VII were introduced with MNU. Two weeks after MNU treatment, animals were treated orally with synthesized compounds and control substances (5 and 50 mg/kg, for groups II-IV and V-VII, respectively) by gavage once per day for six weeks. Animals in the intact control group and untreated MNU group were given vehicle (Tween 80) according to the experimental protocol. […]
# Upon finishing the treatment with synthesized compounds, animals were sacrificed, and plasma, serum, and liver samples were collected.
# Measurement of Serum Biochemical Markers
# The activities of AST and ALT on 340 nm, and ALP on 405 nm, were determined by UV-Vis kinetic methods according to recommendations of the Expert Panel of the IFCC (International Federation of Clinical Chemistry). The colorimetric methods were used for the determination of total bilirubin (Jendrassik-Grof 550 nm method). All kinetic and colorimetric measurements were recorded using a Perkin-Elmer Lambda 25 UV/Vis spectrophotometer. […]
# [2] = system: MNU-induced breast cancer tissue; assay: Histopathology of breast sections; format: in vivo, Wistar rats
# Text: The impact of selected leads on BC tissue was registered after their administration to experimental animals with MNU-induced BC (Figure 9 and Supplementary Material Figures S211–S218). […] In contrast to this, the administered leads were harmless in both concentrations, neutralizing the MNU-induced changes, judging by the lobuloalveolar units and cuboidal epithelial cells found (Figure 9C,D, and Supplementary Material Figures S214–S218). […]
# Histopathological Studies
# histopathological changes. […]
# [3] = system: MNU-induced breast cancer; assay: In vivo anticancer screening, MNU-induced mammary tumorigenesis; set-up: species or system female Wistar rats
# MDA-MB-231 cell lines = assay: MTT antiproliferative assay; format: cell-based, human; details: read-out: MDA-MB-231 (IC50 nM)
# [4] = Pharmacokinetics study, oral bioavailability; details: rat
# [5] = MTT antiproliferative assay (neutral control); details: human
# ERβ = ERβ (Homo sapiens, UniProt Q92731); assay: Fluorescence polarization competition assay: antagonistic potency and relative binding affinity; details: for logRBA ERβ: log of % relative binding affinity, estradiol = 100%
# Sequence of ERβ (Q92731 whole entry): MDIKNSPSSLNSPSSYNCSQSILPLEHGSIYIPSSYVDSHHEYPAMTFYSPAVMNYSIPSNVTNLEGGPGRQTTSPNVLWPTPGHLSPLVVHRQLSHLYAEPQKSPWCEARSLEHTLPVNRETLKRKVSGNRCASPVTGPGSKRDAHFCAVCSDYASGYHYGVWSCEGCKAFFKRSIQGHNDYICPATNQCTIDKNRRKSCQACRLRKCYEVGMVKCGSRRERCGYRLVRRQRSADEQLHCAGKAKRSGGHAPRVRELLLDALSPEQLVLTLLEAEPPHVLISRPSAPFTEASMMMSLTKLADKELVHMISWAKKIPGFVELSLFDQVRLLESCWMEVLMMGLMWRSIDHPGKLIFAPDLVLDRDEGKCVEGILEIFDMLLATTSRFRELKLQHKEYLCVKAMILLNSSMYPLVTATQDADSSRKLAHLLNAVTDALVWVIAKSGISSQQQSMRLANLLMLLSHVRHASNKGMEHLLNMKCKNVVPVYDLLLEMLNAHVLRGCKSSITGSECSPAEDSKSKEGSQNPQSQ
# MCF-7 cells = assay: Cell cycle distribution by flow cytometry; format: cell-based, human; details: 24 h
# [6] = Plasma protein binding determination; format: in vitro ADME, rat; details: rat plasma, 37 °C, read-out: Rat PPB (%free)
# Experimental: as §1, §2, §3
# (§4) Upon finishing the treatment with synthesized compounds, animals were sacrificed, and plasma, serum, and liver samples were collected. […]
# Rat plasma containing either 5 or 50 mg/kg bwt of the tested compounds was incubated at 37°C upper reservoir of the washed Centri-free YM-30 ultrafiltration units (Millipore, Bedford, MA) and then centrifuged for 20 min at 2,000 g. Aliquots of the ultrafiltrates and unfiltered incubation mixtures were analyzed for the total protein concentration by the bicinchoninic acid assay for protein concentration (BCA assay; Pierce, Rockford, IL).
# [7] = system: Ishikawa endometrial adenocarcinoma cells; assay: Antiproliferative assay; format: cell-based; details: Homo sapiens, growth inhibition
# Text: As SERMs profile is often associated with the stimulation of endometrial cell proliferation and an increase in the incidence of endometrial cancer (EC), the herein compounds were therefore evaluated against Ishikawa endometrial adenocarcinoma cells (Table 8, Supplementary Material Figures […]). […] However, future experimental elaboration, currently beyond the authors' experimental facilities, is required to confirm compounds' promising profiles in terms of no EC induction.
# MCF-7 cell lines = assay: MTT antiproliferative assay; format: cell-based, human; details: read-out: MCF-7 (IC50 nM)
# [8] = Lipophilicity by shake-flask method; details: pH 7.4
# [9] = system: progesterone receptor (PR); assay: ERα functional antagonism cell assay (PR as biomarker) in MCF-7; format: cell-based; details: Homo sapiens, MCF7; progesterone receptor as biomarker for ERα antagonism in MCF-7
# [10] = Liver oxidative stress markers after treatment of MNU-induced rats; format: in vivo, Wistar rats; set-up: CAT: unit not given here; details: liver; for CAT: catalase activity; for GSH: reduced glutathione; for SOD (U/mg): superoxide dismutase activity; for TP: total protein content
# Experimental: as §1, §2, §3, §4
# Determination of Antioxidant Markers in Liver Homogenate
# Rat liver samples were homogenized in phosphate buffer (5 mM, pH = 7.4) to give a 10% (w/v) liver homogenate and then centrifuged at 4000 rpm for 15 min at 4°C. The supernatant of liver homogenate was used for the estimation of reduced glutathione (GSH) and catalase (CAT) levels by the colorimetric method. The contents of malondialdehyde (MDA) in the supernatant of the liver homogenates were determined using 1,1,3,3-tetraethoxypropane as standard. Total protein concentrations were determined according to the method of Lowry using bovine serum albumin as […]
# [11] = dose 50 mg/kg (compounds per os after MNU; MNU alone i.p.)
# [12] = MFD 1000 mg/kg (MNU: MTD 100 mg/kg bwt), 5 days
compound,measurement,setting,value
"CC(=O)c1cc(C(=O)O[C@@H]2/C=C/C(=O)O[C@@H](O)CCC/C=C/[C@@H]3C[C@H](O)C[C@H]32)ccc1OCCS(=O)(=O)O [Compound 3DPQ-4, 2-(2-acetyl-4-((((1R,2E,6R,10E,11aS,13S,14aR)-6,13-dihydroxy-4-oxo-4,6,7,8,9,11a,12,13,14,14a-decahydro-1H-cyclopenta[f][1]oxacyclotridecin-1-yl)oxy)carbonyl)phenoxy)ethanesulfonic acid]",ALP (A/L),[1]; dose 5 mg/kg,99.41±0.15 A/L
same,ALT (A/L),[1]; dose 5 mg/kg,55.87±0.62 A/L
same,AST (U/L),[1]; dose 5 mg/kg,57.53±0.43 U/L
same,γ-GT (U/L),[1]; dose 5 mg/kg,11.54±0.53 U/L
same,ALP (A/L),[1]; dose 50 mg/kg,104.52±0.31 A/L
same,ALT (A/L),[1]; dose 50 mg/kg,59.74±0.1 A/L
same,AST (U/L),[1]; dose 50 mg/kg,59.46±0.63 U/L
same,γ-GT (U/L),[1]; dose 50 mg/kg,13.46±0.55 U/L
same,TBC,[1]; dose 5 mg/kg,19.31
same,TBC,[1]; dose 50 mg/kg,22.74
same,breast section histopathology,[2]; 5 mg/kg of bwt,lobuloalveolar unit (LaU) and cuboidal epithelial cells (CE)
same,breast section histopathology,[2]; 50 mg/kg of bwt,lobuloalveolar unit (LaU) and cuboidal epithelial cells (CE)
same,Tumor Burden (week),[3]; dose 5 mg/kg per os after MNU,"2.39 ± 0.56 *^,†,‡,‖ week"
same,Tumor Latency (week),[3]; dose 5 mg/kg per os after MNU,"10 *^,† week"
same,Tumor Volume (mm^3),[3]; dose 5 mg/kg per os after MNU,"0.98 ± 0.31 *^,†,‡,‖ mm^3"
same,Tumor Burden (week),[3]; [11],"1.33 ± 0.15 *^,†,§,┴ week"
same,Tumor Latency (week),[3]; [11],"14 *^,† week"
same,Tumor Volume (mm^3),[3]; [11],"0.41 ± 0.23 *^,†,§,┴ mm^3"
same,IC50,"MDA-MB-231 cell lines; Homo sapiens, MDA-MB-231, growth inhibition, 48 h",67.31 ± 0.34 nM
same,BIO,[4]; oral 5 mg/kg,90
same,BIO,[4]; oral 50 mg/kg,93
same,IC50 at 48 h,[5],> 100 nM
same,Ki,"ERβ; calculated antagonistic (inhibitory) constant, read-out: Ka ERβ",0.0463 µM
same,IC50,"ERβ; concentration that antagonizes 50% of ERβ signaling activity, read-out: ERβ (IC50 nM)",82.45 ± 0.54 nM
same,logRBA ERβ,ERβ,"0.03 ^†,‡,§"
same,Cell Cycle (%) G0/G1,MCF-7 cells; 0.1 nM,"77.78 ± 3.54 *^,†,‡,§ %"
same,Cell Cycle (%) G2/M,MCF-7 cells; 0.1 nM,"15.02 ± 4.23 *^,†,‡,§ %"
same,Cell Cycle (%) S,MCF-7 cells; 0.1 nM,"7.20 ± 2.88 *^,†,‡,§ %"
same,Cell Cycle (%) G0/G1,MCF-7 cells; 1 nM,"80.24 ± 2.53 *^,†,‡,§ %"
same,Cell Cycle (%) G2/M,MCF-7 cells; 1 nM,"11.86 ± 3.43 *^,†,‡,§ %"
same,Cell Cycle (%) S,MCF-7 cells; 1 nM,"7.91 ± 0.1.54 *^,†,‡,§ %"
same,fraction unbound at 5 mg/kg bwt,[6],0.0123
same,fraction unbound at 50 mg/kg bwt,[6],0.0151
same,IC50,[7],0.92 ± 0.43 nM
same,IC50,"MCF-7 cell lines; Homo sapiens, MCF7, growth inhibition, 48 h",0.64 ± 0.15 nM
same,"WL after MFD (day 1, mg)","rat, in vivo",320.73 ± 0.36 mg
same,logD at 30 min,[8],1.88
same,IC50,[9],> 100 nM
same,CAT,[10]; dose 5 mg/kg,16.34±0.73
same,CAT,[10]; dose 50 mg/kg,16.43±0.66
same,TBARS,[10]; dose 5 mg/kg,0.65 ± 0.21 nmol/mg
same,TBARS,[10]; dose 50 mg/kg,0.65 ± 0.34 nmol/mg
same,GSH,[10]; dose 5 mg/kg,9.87 mg/g
same,GSH,[10]; dose 50 mg/kg,10.36 mg/g
same,SOD (U/mg),[10]; dose 5 mg/kg,8.73±0.38 U/mg
same,SOD (U/mg),[10]; dose 50 mg/kg,10.57±0.73 U/mg
same,TP,[10]; dose 50 mg/kg,48.54 g/L
"CC/C(=C(\c1ccc(O)cc1)c1ccc(OCCN(C)C)cc1)c1ccccc1 [Compound 4-OHT., 4-hydroxytamoxifen, reference compound]",ALP (A/L),[1]; dose 5 mg/kg,105.32±0.31 A/L
same,ALT (A/L),[1]; dose 5 mg/kg,52.44±0.31 A/L
same,AST (U/L),[1]; dose 5 mg/kg,53.76±0.32 U/L
same,γ-GT (U/L),[1]; dose 5 mg/kg,16.54 U/L
same,ALP (A/L),[1]; dose 50 mg/kg,131.43±0.43 A/L
same,ALT (A/L),[1]; dose 50 mg/kg,59.63±0.32 A/L
same,AST (U/L),[1]; dose 50 mg/kg,58.41±0.25 U/L
same,γ-GT (U/L),[1]; dose 50 mg/kg,18.47±0.45 U/L
same,TBC,[1]; dose 5 mg/kg,23.56
same,TBC,[1]; dose 50 mg/kg,25.57
same,breast section histopathology,[2]; 5 mg/kg of bwt,necrosis (NEC)
same,breast section histopathology,[2]; 50 mg/kg of bwt,necrosis (NEC)
same,Tumor Burden (week),[3]; dose 5 mg/kg per os after MNU,"3.36 ± 0.38 *^,†,‖ week"
same,Tumor Latency (week),[3]; dose 5 mg/kg per os after MNU,7 * week
same,Tumor Volume (mm^3),[3]; dose 5 mg/kg per os after MNU,"1.88 ± 0.35 *^,†,‖ mm^3"
same,Tumor Burden (week),[3]; [11],"3.22 ± 0.21 *^,†,┴ week"
same,Tumor Latency (week),[3]; [11],"10 *^,† week"
same,Tumor Volume (mm^3),[3]; [11],"1.35 ± 0.63 *^,†,┴ mm^3"
same,IC50,"MDA-MB-231 cell lines; growth inhibition, 48 h",37.1 ± 0.45 nM
same,IC50,MDA-MB-231 cell lines; references in Table S17,37.04 ± 0.32 nM
same,BIO,[4]; oral 5 mg/kg,88 ^‖
same,BIO,[4]; oral 50 mg/kg,94
same,IC50 at 48 h,"[5]; MRC-5 lung fibroblast cells, MRC-5 (IC50 nM), growth inhibition",> 10 nM
same,IC50 at 48 h,"[5]; MRC-5 lung fibroblast cells, MRC-5 (IC50 nM), references in Table S17",> 100 nM
same,logRBA ERβ,ERβ,1.39 ^†
same,Cell Cycle (%) G0/G1,MCF-7 cells; 0.1 nM,"57.22 ± 0.37 *^,†,§ %"
same,Cell Cycle (%) G2/M,MCF-7 cells; 0.1 nM,"24.02 ± 0.53 *^,,†§ %"
same,Cell Cycle (%) S,MCF-7 cells; 0.1 nM,"18.76 ± 0.41 *^,†,§ %"
same,Cell Cycle (%) G0/G1,MCF-7 cells; 1 nM,"63.26 ± 0.41 *^,†,§ %"
same,Cell Cycle (%) G2/M,MCF-7 cells; 1 nM,"15.60 ± 0.15 *^,†,§ %"
same,Cell Cycle (%) S,MCF-7 cells; 1 nM,"21.14 ± 0.25 *^,†,§ %"
same,fraction unbound at 5 mg/kg bwt,[6],0.0185
same,fraction unbound at 50 mg/kg bwt,[6],0.0252
same,IC50,[7],1.29 ± 0.43 nM
same,IC50,"MCF-7 cell lines; growth inhibition, 48 h",1.19 ± 0.57 nM
same,IC50,MCF-7 cell lines; references in Table S17,1.24 ± 0.32 nM
same,colon section histopathology,[12],no morphological changes
same,heart section histopathology,[12],no morphological changes
same,kidney section histopathology,[12],no morphological changes
same,liver section histopathology,[12],no morphological changes
same,lung section histopathology,[12],no morphological changes
same,spleen section histopathology,[12],no morphological changes
same,"WL after MFD (day 1, mg)","average body weight at day 1, dosing at MFD",305.84 ± 0.59 mg
same,"WL after MFD (day 5, mg)","average body weight at day 5, dosing at MFD",297.65 ± 0.39 mg
same,MFD (5 days),"maximum feasible (or tolerated) dose, 5 days per os, 5-1000 mg/kg bwt",1000 mg/kg
same,logD at 30 min,[8]; n-octanol/phosphate buffer,3.64
same,IC50,[9],> 100 nM
same,CAT,[10]; dose 5 mg/kg,13.56±0.88
same,CAT,[10]; dose 50 mg/kg,20.46±0.76
same,TBARS,[10]; dose 50 mg/kg,3.63 ± 0.32 nmol/mg
same,GSH,[10]; dose 5 mg/kg,4.67 mg/g
same,GSH,[10]; dose 50 mg/kg,3.33 mg/g
same,SOD (U/mg),[10]; dose 5 mg/kg,4.87±0.72 U/mg
same,SOD (U/mg),[10]; dose 50 mg/kg,7.46±0.34 U/mg
same,TP,[10]; dose 50 mg/kg,47.46 g/L
